The series in a line: Evaluation of absorption of soyasapogenol composition, blood soyasapogenol B at 1 to 12 hours and AUC (Examples 3 to 4). The series is classed as in vivo. The following applies: rat, plasma, oral, male SD rats, single dose with feeding needle, 100 μmol/kg body weight in terms of saponin aglycone. As to the method:
To each of the obtained plasma, 0.2 M Na acetate buffer solution (pH 5.5) in an amount same as that of the plasma was added. Subsequently, 3000 units of β-glucuronidase (product name: H-2, product of Sigma-Aldrich, Co. LLC) were added, and an enzyme reaction was allowed at 37° C. for 12 hours. After termination of the reaction, 3 ml of a mixture liquid of methanol:acetonitrile (1:1) and internal standard formononetin (product of Sigma-Aldrich, Co. LLC) were added to the enzyme treatment solution, followed by centrifugation, and then a supernatant was collected. An operation of adding 3 ml of the mixture liquid of methanol:acetonitrile (1:1) to a residue and performing centrifugation was repeated twice, and a supernatant was collected after each of the operations. The collected supernatants were mixed and subjected to drying under reduced pressure using a rotary evaporator.
8-week-old male SD rats (Charles River Laboratories Japan, Inc.) were divided into groups so that one group consists of 4 rats, and each of the compositions of Examples 3 and 4 and Comparative Example 1 was suspended into a 0.5% CMC solution, followed by a single dose administration of the suspension in an equivalent amount (100 μmol/kg body weight) in terms of saponin aglycone to each of the rats with a feeding needle. Blood sampling was conducted at 1, 3, 8 and 12 hours after the administration, and plasma was obtained from each of the blood samples. Each of the obtained plasma was subjected to the pre-treatment and the HPLC-MS analysis in the same manner as in Example 1 to examine the soyasapogenol B concentration in the blood. The blood soyasapogenol B concentration at 1 to 12 hours after the administration and AUCs (areas under curve of the blood concentration) are shown in Table 3.

SMILES strings stand for the structures.

For `CC1(C)C[C@@H](O)[C@]2(C)CC[C@]3(C)C(=CC[C@@H]4[C@@]5(C)CC[C@H](O)[C@](C)(CO)[C@@H]5CC[C@]43C)[C@@H]2C1` [Comp. Ex. 1, soyasapogenol B], the AUC (100 umol/kg, 1 to 12 hours, read-out: AUC (area under curve of the blood soyasapogenol B concentration)) was 2910 ng·h/mL. The concentration at 1 h (1 hour, read-out: Blood Soyasapogenol B Concentration 1 hour after) was 317 ng/mL. Also, the concentration at 3 h (3 hours, read-out: Blood Soyasapogenol B Concentration 3 hours after) was 280 ng/mL. Further, the concentration at 8 h (8 hours, read-out: Blood Soyasapogenol B Concentration 8 hours after) was determined as 293 ng/mL. The concentration at 12 h (12 hours, read-out: Blood Soyasapogenol B Concentration 12 hours after) came to 68.1 ng/mL.

The values above are taken from patent US9216187B2, “Soyasapogenol composition” (J-OIL MILLS, INC., priority 2011, dated 2015).
